Measurements taken from ChEMBL document CHEMBL1143116, “Synthesis and biological evaluation of 5-(pyridin-2-yl)thiazoles as transforming growth factor-beta type1 receptor kinase inhibitors” (Bioorg Med Chem Lett, 2008).

Target: T1, TGF-beta receptor type-1 (Homo sapiens) (UniProt P36897)
T1 sequence (whole entry): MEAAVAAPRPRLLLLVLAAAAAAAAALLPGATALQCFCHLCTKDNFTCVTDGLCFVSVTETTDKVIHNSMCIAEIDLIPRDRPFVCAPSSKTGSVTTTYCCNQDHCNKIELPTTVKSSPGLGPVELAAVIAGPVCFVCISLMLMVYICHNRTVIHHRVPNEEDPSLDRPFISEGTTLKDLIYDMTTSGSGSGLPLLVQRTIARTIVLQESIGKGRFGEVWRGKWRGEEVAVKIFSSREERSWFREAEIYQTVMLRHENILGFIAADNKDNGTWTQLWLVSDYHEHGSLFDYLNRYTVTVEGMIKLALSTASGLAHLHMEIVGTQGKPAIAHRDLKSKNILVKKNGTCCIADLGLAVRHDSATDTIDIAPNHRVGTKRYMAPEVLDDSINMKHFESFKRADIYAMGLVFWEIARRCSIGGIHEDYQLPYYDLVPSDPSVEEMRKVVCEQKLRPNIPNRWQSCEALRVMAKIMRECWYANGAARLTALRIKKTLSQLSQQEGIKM
Test: Inhibition of TGF-beta-induced ALK5 in human HaCaT cells assessed as p3TP-luciferase activity
Type: cell-based

Cc1cccc(-c2sc(NCc3cccc(C(N)=O)c3)nc2-c2ccc3nccnc3c2)n1
Activity: Dose-dependent effect
